# Data published in patent publication US7981598B2, “Preventive/remedy for respiratory diseases” (Takeda Pharmaceutical Company Limited, priority 2004, dated 2011).
# Key:
# C57BL/6 mice [1] = test: Production of cytokines in bronchoalveolar lavage fluid after intratracheal administration of 25-HC (ELISA); assay type: in vivo; details: 50 μg/50 μl/mouse, 3 hours after administration, vs control, FIG. 7
# Procedure: To examine whether production of cytokines by 25-HC is observed in vivo as well, the effect of 25-HC administered to the lung of a mouse was examined.
# 25-HC or a control (physiological saline containing a solvent at the same concentration as used in dissolving 25-HC (10% aqueous ethanol)) was intratracheally administered at a dose of 50 μg/50 μl/mouse to C57BL/6 mice (6-week-old, male) under anesthesia with halothane, and 3, 6, 12, 24 and 48 hours after administration, the bronchoalveolar lavage fluid was recovered, and the amounts of KC and MIP-2, that is, inflammatory cytokines in the lavage fluid were measured by a commercial ELISA kit.
# [2] = test system: cells containing alveolar macrophages; test: Stimulation with LPS and 25-HC of bronchoalveolar lavage fluid cells from a cigarette smoke-exposed mouse; cytokine mRNA by real-time quantitative PCR; assay type: cell-based; details: co-stimulation with LPS (10 ng/ml) and 25-HC (0.3 to 3 μg/ml), 24 hours, compared with LPS alone; FIG. 6
# Procedure: To examine the involvement of CH25H on the morbid state of COPD, the effect of added 25-hydroxycholesterol (25-HC), i.e. CH25H reaction product, on alveolar macrophages was examined. According to the method described in EXAMPLE 4, a mouse was exposed to cigarette smoke for 4 days, and on the next day of the final exposure, the bronchoalveolar lavage fluid was recovered according to the method described in EXAMPLE 4, and cells containing alveolar macrophages were seeded on a 96-well plate at a density of 1×10^6 cells/ml. On the next day, the cells were stimulated with LPS (10 ng/ml) and 25-HC (0.3 to 3 μg/ml) and cultured for 24 hours. According to the method described in EXAMPLE 1, total RNA was then recovered from the cells according to the attached manual, and the amounts of mRNAs of CXCL2 and IL-1β, that is, inflammatory cytokines, were quantified by the real-time quantitative PCR method. As each probe, the corresponding probe was selected from Assays on demand gene expression product (Applied Biosystems) and used. The expression level of each gene was calculated as relative expression value to rodent GAPDH by the comparative Ct value method.
# C57BL/6 mice [3] = test: Neutrophil infiltration in bronchoalveolar lavage fluid after intratracheal administration of hydroxylated cholesterols; assay type: in vivo; details: 50 μg/50 μl/mouse/day for 4 days, lavage on the next day, FIG. 8
# Procedure: To examine whether the airway inflammatory reaction by 25-HC is observed in vivo as well, the effect of 25-HC administered to the lung of a mouse was examined.
# 25-HC or a control (physiological saline containing a solvent at the same concentration as used in dissolving 25-HC (9.5% aqueous ethanol)), or 4β-hydroxycholesterol (4β-HC), was intratracheally administered for 4 days at a dose of 50 μg/50 μl/mouse/day to C57BL/6 mice (7-week-old, male) under anesthesia with ketamine and xylazine, and on the next day, the bronchoalveolar lavage fluid was recovered, and the number of inflammatory cells was determined.
structure (smiles),measurement,setting,value
"C[C@H](CCCC(C)(C)O)[C@H]1CC[C@H]2[C@@H]3CC=C4C[C@@H](O)CC[C@]4(C)[C@H]3CC[C@]12C [25-HC, 25-hydroxycholesterol]",amount of KC in bronchoalveolar lavage fluid,C57BL/6 mice [1],significant increase
same,amount of MIP-2 in bronchoalveolar lavage fluid,C57BL/6 mice [1],significant increase
same,"expression of CXCL2 (mRNA, relative to rodent GAPDH)",[2],increased depending on the concentration of 25HC
same,"expression of IL-1β (mRNA, relative to rodent GAPDH)",[2],increased depending on the concentration of 25HC
same,neutrophil infiltration (number of neutrophils in bronchoalveolar lavage fluid),C57BL/6 mice [3],significant neutrophil infiltration was recognized
